Source: paper PMC10187112 (Journal of Enzyme Inhibition and Medicinal Chemistry, 2023)

Tests used:
[1] = test system: mice; assay: Amphetamine-induced hyperactivity; conditions: 10 mg/kg i.p., 30 min before amphetamine 5 mg/kg s.c., p < 0.0001
[2] = biological target: T1, human 5-HT1A receptor (Homo sapiens, UniProt P08908); assay: Functional assay of cAMP signalling (5-HT1A agonism), HEK293 cells; format: cell-based
T1 construct: expressed in transfected cells; host or cells: HEK293
T1 sequence (P08908 1-422): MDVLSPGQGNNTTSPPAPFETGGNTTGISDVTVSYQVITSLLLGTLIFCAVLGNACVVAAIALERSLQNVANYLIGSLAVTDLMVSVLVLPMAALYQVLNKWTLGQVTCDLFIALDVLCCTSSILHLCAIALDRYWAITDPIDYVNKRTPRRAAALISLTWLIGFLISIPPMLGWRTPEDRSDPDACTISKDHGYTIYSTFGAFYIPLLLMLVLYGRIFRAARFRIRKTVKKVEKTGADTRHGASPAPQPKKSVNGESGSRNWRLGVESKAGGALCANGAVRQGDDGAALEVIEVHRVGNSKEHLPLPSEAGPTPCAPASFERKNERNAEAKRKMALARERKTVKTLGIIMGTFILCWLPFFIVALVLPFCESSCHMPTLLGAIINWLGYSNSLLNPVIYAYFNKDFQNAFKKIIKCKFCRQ
Procedure: The activity of selected compounds at 5-HT1A receptor was investigated in cell-based functional assays of cAMP signalling in the HEK293 cell line stably expressing the cloned human 5-HT1A receptor also employed for the radioligand binding assays. […] Test compounds were added to the assay plates from 5× working dilution intermediate plates, which were prepared by means of acoustic noncontact dispensing of the compounds, keeping vehicle concentration (0.1% DMSO) constant in the assay.

[3] = biological target: human D2S receptor (Homo sapiens, UniProt P14416); assay: Functional assay of cAMP signalling (D2 antagonism), CHO-K1 cells
[4] = test system: mice; assay: Passive avoidance (PA) test (memory); conditions: 10 mg/kg i.p., 60 min before test
[5] = biological target: T2, human 5-HT7 receptor (Homo sapiens, UniProt P34969); assay: Competition radioligand binding, [3H]-SB269970, HEK293 membranes
T2 construct: expressed in transfected cells; host or cells: HEK293
Procedure: (§1) Competition radioligand binding assays were performed on membranes isolated from cell lines stable expressing the cloned human receptors, which were either in-house or commercially available. […] Assays (250 μL assay final volume) were carried out in 96-well polypropylene plates in duplicate. In short, suspension of appropriate membrane protein was incubated in assay buffer with addition of the corresponding radioligand, in the presence or absence of tested compound or reference compound. […] After the incubation, the content of the test plates was transferred to 96-well plates with glass fibre filter GF/B or GF/C, previously pre-treated with polyethyleneimine (PEI), and rapidly filtered with the use of vacuum, followed by rapid washing with cold (4 °C) wash buffer. After that the filter plates were dried at 60 °C for 1 h. Then, 30 μL of liquid scintillation cocktail (UniverSol-ES, MP Biomedicals, Solon, OH) was added to each well of the filter plates and the radioactivity was measured in a MicroBeta2 microplate scintillation counter (PerkinElmer, Madrid, Spain).
(§2) Competition binding curves were fitted to a one-site competition binding model (Fit Ki) with the use of Prism 7 software (GraphPad, San Diego, CA). logKi (log of the equilibrium dissociation constant (Ki)) values were obtained after constraining the concentration of radioligand employed in the assay and its dissociation constant (KD) as determined in saturation radioligand binding assays.

[6] = biological target: T3, human dopamine D3 receptor (Homo sapiens, UniProt P35462); assay: Competition radioligand binding, [3H]-spiperone, CHO-K1 membranes
T3 construct: expressed in transfected cells; host or cells: CHO-K1
Procedure: as §1, §2

[7] = biological target: T4, human dopamine D2 (D2S) receptor (Homo sapiens, UniProt P14416); assay: as above; conditions: human cloned D2S; read-out: Ki D2 (converted)
T4 construct: expressed in transfected cells; host or cells: CHO-K1
Procedure: (§3) Experiments were carried out in membranes from cell lines stably expressing the human cloned receptors.
as §1, §2

[8] = biological target: T5, human 5-HT2A receptor (Homo sapiens, UniProt P28223); assay: Functional assay of inositol phosphate production (5-HT2A antagonism), CHO-K1 cells; format: cell-based
T5 construct: expressed in transfected cells; host or cells: CHO-K1
Procedure: The activity of selected compounds at 5-HT2A receptors was investigated in cell-based functional assays of IP production in the CHO-K1 cell line stably expressing the cloned human 5-HT2A receptor also employed for the radioligand binding assays. Twenty-four hours before the experiment, cells in culture were seeded in complete growth medium prepared with dialysed foetal bovine serum, in half-area, white, 96-well tissue culture plates (Corning®, Fisher Scientific SL, Madrid, Spain). At the day of assay, plates were washed with assay buffer (kit stimulation buffer) and incubated with test compounds for 10 min at 37 °C. Test compounds were added to the assay plates from 7× working dilution intermediate plates that were prepared by means of acoustic noncontact dispensing of the compounds, keeping vehicle concentration (0.1% DMSO) constant in the assay. […] After this time, cellular IP levels were quantified by using the HTRF-based inositol monophosphate kit IP-One Gq kit (Cisbio, Bioassays, Codolet, France) following the manufacturer’s protocol. […] Basal IP levels were determined in control wells in the absence of compound and agonist. […] Kb value of the compounds was estimated as described above for functional assays of cAMP signalling at D2 receptors.

[9] = biological target: T6, human dopamine D1 receptor (Homo sapiens, UniProt P21728); assay: Competition radioligand binding, [3H]-SCH-23390, CHO-K1 membranes
T6 construct: expressed in transfected cells; host or cells: CHO-K1
Procedure: Competition radioligand binding assays were performed on membranes isolated from cell lines stable expressing the cloned human receptors, which were either in-house or commercially available. […] Assays (250 μL assay final volume) were carried out in 96-well polypropylene plates in duplicate. In short, suspension of appropriate membrane protein was incubated in assay buffer with addition of the corresponding radioligand, in the presence or absence of tested compound or reference compound. […] Then, 30 μL of liquid scintillation cocktail (UniverSol-ES, MP Biomedicals, Solon, OH) was added to each well of the filter plates and the radioactivity was measured in a MicroBeta2 microplate scintillation counter (PerkinElmer, Madrid, Spain).
as §2

[10] = biological target: T7, human muscarinic M1 receptor (Homo sapiens, UniProt P11229); assay: Competition radioligand binding, [3H]-pirenzepine, CHO-K1 membranes; conditions: read-out: % inh. at 10 μM M1
T7 construct: expressed in transfected cells; host or cells: CHO-K1
T7 sequence (P11229 1-460): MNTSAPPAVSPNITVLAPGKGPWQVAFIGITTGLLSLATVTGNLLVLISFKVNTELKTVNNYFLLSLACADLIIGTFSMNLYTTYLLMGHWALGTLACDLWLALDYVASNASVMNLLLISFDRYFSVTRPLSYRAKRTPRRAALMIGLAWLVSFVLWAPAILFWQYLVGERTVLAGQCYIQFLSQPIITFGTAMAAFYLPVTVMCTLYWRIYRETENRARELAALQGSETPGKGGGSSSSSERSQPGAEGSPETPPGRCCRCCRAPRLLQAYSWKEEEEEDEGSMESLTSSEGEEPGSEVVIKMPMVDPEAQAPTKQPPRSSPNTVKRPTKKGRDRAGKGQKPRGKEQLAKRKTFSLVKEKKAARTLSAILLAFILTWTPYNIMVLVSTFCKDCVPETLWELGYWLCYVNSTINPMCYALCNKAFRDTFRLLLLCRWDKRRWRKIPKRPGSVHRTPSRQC
Procedure: as §1, §2

[11] = biological target: T8, human histamine H1 receptor (Homo sapiens, UniProt P35367); assay: Competition radioligand binding, [3H]-pyrilamine, CHO-K1 membranes
T8 construct: expressed in transfected cells; host or cells: CHO-K1
Procedure: as §1, §2

[12] = biological target: T9, human serotonin 5-HT1A receptor (Homo sapiens, UniProt P08908); assay: Competition radioligand binding, [3H]-8-OH-DPAT, HEK293 membranes; conditions: human cloned 5-HT1A; read-out: Ki 5-HT1A (converted)
T9 construct: expressed in transfected cells; host or cells: HEK293
T9 sequence (P08908 1-422): T1 sequence (P08908 1-422)
Procedure: as §3, §1, §2

[13] = test system: mice; assay: Rota-rod test (motor coordination); format: in vivo; conditions: 10, 20, and 40 mg/kg i.p., 60 min after treatment, 3 min
Procedure: To fully assess the impact of selected compounds on animals’ motor coordination, both compounds (at the same doses as were used for spontaneous locomotor activity measurements) were tested also in the rota-rod test. The applied protocol has been already validated in our laboratory[12]^,[62]^,[63]. […] The time spent by each mouse on the rota-rod was measured for 3 min. The additional aim of the rota-rod test was to confirm the appropriate selection of doses for further behavioural examination. […] After such confirmation, the above-mentioned doses were chosen for the rest of behavioural tests.

[14] = test system: mice; assay: Elevated plus maze (EPM) test (anxiety); conditions: 10 mg/kg i.p., 60 min before test
[15] = biological target: T10, human serotonin 5-HT2A receptor (Homo sapiens, UniProt P28223); assay: Competition radioligand binding, [3H]-Ketanserin, CHO-K1 membranes
T10 construct: expressed in transfected cells; host or cells: CHO-K1
Procedure: as §3, §1, §2

[16] = test system: mice; assay: Spontaneous locomotor activity; conditions: recorded 30 min, 30 min after injection

human D2S receptor, sequence (P14416 1-414 isoform P14416-2): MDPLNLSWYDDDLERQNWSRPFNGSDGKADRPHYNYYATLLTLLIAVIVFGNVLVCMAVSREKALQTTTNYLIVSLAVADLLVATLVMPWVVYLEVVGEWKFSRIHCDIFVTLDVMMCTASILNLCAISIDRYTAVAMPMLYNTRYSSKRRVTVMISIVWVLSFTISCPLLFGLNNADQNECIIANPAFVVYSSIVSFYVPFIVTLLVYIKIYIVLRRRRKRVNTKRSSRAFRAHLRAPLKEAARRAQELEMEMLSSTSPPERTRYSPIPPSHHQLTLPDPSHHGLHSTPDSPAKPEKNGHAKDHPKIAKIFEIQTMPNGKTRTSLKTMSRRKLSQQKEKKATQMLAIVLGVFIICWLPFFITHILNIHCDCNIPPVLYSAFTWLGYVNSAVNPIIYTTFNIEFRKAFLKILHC
T10 sequence (P28223 whole entry): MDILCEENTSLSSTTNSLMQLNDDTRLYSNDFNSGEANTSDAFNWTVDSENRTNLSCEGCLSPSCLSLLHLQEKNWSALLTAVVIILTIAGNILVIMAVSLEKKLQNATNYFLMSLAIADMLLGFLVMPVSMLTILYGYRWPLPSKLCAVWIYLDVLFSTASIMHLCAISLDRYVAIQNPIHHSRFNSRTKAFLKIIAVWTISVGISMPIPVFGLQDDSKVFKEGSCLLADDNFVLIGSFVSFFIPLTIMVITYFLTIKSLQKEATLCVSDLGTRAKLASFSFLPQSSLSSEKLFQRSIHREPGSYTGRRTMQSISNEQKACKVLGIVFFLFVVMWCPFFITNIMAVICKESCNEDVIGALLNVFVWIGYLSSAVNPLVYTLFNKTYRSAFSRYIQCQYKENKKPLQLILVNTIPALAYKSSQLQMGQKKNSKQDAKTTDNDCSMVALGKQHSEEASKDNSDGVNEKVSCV
T5 sequence (P28223 whole entry): as above
T2 sequence (P34969 whole entry): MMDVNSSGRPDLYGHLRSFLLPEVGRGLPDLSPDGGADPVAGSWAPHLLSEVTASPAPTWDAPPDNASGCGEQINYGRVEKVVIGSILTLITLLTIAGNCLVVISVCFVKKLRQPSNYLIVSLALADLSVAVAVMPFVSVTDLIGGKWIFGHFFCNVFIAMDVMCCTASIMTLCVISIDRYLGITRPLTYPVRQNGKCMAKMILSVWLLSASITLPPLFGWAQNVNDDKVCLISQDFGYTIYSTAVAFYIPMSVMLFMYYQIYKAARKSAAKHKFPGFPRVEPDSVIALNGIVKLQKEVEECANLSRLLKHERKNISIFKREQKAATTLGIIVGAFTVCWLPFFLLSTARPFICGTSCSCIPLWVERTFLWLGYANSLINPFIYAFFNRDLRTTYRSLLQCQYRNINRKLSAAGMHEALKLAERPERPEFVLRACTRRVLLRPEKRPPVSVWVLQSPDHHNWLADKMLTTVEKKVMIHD
T4 sequence (P14416 1-414 isoform P14416-2): as the sequence (P14416 1-414 isoform P14416-2) above
T8 sequence (P35367 whole entry): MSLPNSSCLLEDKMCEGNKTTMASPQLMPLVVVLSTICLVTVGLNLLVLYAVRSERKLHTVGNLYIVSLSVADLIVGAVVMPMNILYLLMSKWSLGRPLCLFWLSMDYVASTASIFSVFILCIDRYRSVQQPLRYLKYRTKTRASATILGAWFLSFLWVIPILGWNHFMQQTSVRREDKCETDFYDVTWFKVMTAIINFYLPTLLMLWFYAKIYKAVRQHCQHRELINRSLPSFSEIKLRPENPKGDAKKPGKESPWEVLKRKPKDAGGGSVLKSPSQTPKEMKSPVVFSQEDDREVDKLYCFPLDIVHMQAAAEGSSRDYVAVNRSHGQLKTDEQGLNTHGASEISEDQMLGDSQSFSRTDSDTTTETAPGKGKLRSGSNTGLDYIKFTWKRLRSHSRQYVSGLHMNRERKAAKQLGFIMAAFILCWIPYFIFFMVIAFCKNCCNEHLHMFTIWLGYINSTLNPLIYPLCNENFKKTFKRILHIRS
T3 sequence (P35462 whole entry): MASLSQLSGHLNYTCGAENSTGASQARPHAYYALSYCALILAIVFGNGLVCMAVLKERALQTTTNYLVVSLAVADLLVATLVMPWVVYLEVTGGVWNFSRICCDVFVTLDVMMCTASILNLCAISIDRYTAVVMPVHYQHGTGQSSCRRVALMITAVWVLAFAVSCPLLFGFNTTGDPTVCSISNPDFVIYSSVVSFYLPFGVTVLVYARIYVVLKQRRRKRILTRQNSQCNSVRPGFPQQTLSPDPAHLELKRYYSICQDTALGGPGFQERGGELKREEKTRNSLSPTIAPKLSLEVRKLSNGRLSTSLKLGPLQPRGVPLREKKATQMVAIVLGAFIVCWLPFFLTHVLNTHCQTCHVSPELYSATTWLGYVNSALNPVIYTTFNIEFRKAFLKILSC
T6 sequence (P21728 whole entry): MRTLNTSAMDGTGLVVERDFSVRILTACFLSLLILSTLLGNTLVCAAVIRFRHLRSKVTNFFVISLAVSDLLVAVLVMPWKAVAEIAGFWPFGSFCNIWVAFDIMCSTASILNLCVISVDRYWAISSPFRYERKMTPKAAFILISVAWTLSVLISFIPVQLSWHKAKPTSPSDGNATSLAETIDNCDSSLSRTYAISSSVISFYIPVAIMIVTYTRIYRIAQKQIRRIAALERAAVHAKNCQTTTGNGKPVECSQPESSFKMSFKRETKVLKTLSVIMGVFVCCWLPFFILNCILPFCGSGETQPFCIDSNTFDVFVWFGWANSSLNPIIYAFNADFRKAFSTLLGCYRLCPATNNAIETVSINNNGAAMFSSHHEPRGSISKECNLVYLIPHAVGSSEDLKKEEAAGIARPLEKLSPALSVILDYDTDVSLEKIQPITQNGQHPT

O=C(NCCCN1CCN(c2ccccc2)CC1)c1n[nH]c2ccccc12 [Compound 1, N-(3-(4-phenylpiperazin-1-yl)propyl)-1H-indazole-3-carboxamide] was tested, and the “Effect on amphetamine-induced hyperactivity” value [1] was “significantly reduced hyperactivity induced by amphetamine”, the EC50 [2] was 324 ± 69 nM and the inhibition at 10 µM ([2]; HEK293, 10 µM compound, 1 µM forskolin, read-out: 5-HT1A agonism %inh. of FSK response) was 85.1 ± 3.3%. It also gave a Kb [3] of 22.5 nM, an inhibition at 1 µM ([3]; CHO-K1, read-out: % of inhibition of 1 µM dopamine response) of 48.5 ± 4.9% and an inhibition at 10 µM ([3]; CHO-K1, read-out: D2 antagonism %inh. of DA response) of 50.3 ± 6.3%. The “Effect on PA performance (memory acquisition)” value [4] was “no statistically significant effect on PA performance”, the Ki [5] was 540 nM and the Ki [6] was 711 nM. For the same molecule, the Ki [7] was 69 nM, the inhibition at 10 µM ([8]; CHO-K1, read-out: 5-HT2A antagonism %inh. of 5-HT response) was 99.1 ± 2.5% and the Kb ([8]; read-out: 5-HT2A antagonism (IP signalling) Kb) was 80.2 ± 20.1 nM. The Ki [9] was 241 nM, the inhibition at 10 µM [10] was 21 ± 6% and the Ki [11] was 474 nM. The Ki [12] was 155 nM, the “Motor coordination (rota-rod)” value [13] was “lack of statistically significant difference” and the “Effect on anxiety in EPM test” value [14] was “anxiolytic effect”. For the same molecule, the “Percentage of open arm entries (EPM)” value ([14]; vs. control) was “increase”, the “Percentage of open arm time (EPM)” value ([14]; vs. control) was “increase” and the Ki ([15]; human cloned 5-HT2A) was 35.6 nM. The “pKi 5-HT2A/pKi D2” value ([15]; ratio of pKi values) was 1.04, the Spontaneous locomotor activity ([16]; 10 mg/kg i.p.) was “did not impair animals’ mobility” and the Spontaneous locomotor activity ([16]; 20 mg/kg i.p., p < 0.05) was “statistically significant decrease in the locomotor activity”. For the same molecule, the Spontaneous locomotor activity ([16]; 40 mg/kg i.p., p < 0.05) was “statistically significant decrease in the locomotor activity”.
